Test results reported in ChEMBL document CHEMBL1143486, “The synthesis and 16S A-site rRNA recognition of carbohydrate-free aminoglycosides” (Bioorg Med Chem Lett, 2005).

Columns and labels:
Ribosomal RNA A-site = assay: Dissociation constant against 16S rRNA A-site; type: nucleic-acid assay
Nucleic Acid = assay: Inhibitory concentration against cell-free bacterial transcription / translation (T/T) assay; type: functional

Structure (SMILES) | Kd (Ribosomal RNA A-site) | IC50 (Nucleic Acid)
NC1C[C@@H](N)[C@@H](O)C(O)[C@H]1OCSc1ccnc2cc(C(F)(F)F)ccc12 (stereo not given in full) | 35 µM | > 50 µM
COc1ccc(CO[C@H]2C(N)C[C@@H](N)[C@@H](O)C2O)cc1 (stereo not given in full) | 315 µM | > 50 µM
CN(C)CCCNC(=O)COC1[C@@H](OCSc2ccnc3cc(C(F)(F)F)ccc23)C(N)C[C@@H](N)[C@H]1O (stereo not given in full) | 88 µM | > 50 µM
NCCCNCCO[C@H]1C(O)[C@@H](OCSc2ccnc3cc(C(F)(F)F)ccc23)C(N)C[C@H]1N (stereo not given in full) | 1.5 µM | 15 µM
NC[C@H]1O[C@H](O[C@H]2[C@H](O)[C@@H](O)[C@H](N)C[C@@H]2N)[C@H](N)[C@@H](O)[C@@H]1O [NEAMINE] | 5 µM | > 50 µM
NC[C@@H]1O[C@H](O[C@H]2[C@@H](O)[C@H](O[C@@H]3[C@@H](O)[C@H](N)C[C@H](N)[C@H]3O[C@H]3O[C@H](CO)[C@@H](O)[C@H](O)[C@H]3N)O[C@@H]2CO)[C@H](N)[C@@H](O)[C@@H]1O [PAROMOMYCIN] | 0.1 µM | 0.6 µM

Further compounds by falling Kd (Ribosomal RNA A-site), results first:

Kd (Ribosomal RNA A-site) | IC50 (Nucleic Acid) | Structure (SMILES)
241 µM | > 50 µM | CN(C)CCCNC(=O)CO[C@H]1C(O)[C@@H](OCSc2ccnc3cc(C(F)(F)F)ccc23)C(N)C[C@H]1N (stereo not given in full)
27 µM | > 50 µM | COc1ccc(CO[C@H]2C(N)C[C@@H](N)[C@@H](OCCNCCCN)C2O)cc1 (stereo not given in full)
10 µM | > 50 µM | COc1ccc(CO[C@H]2C(N)C[C@@H](N)[C@@H](O)C2OCCNCCCN)cc1 (stereo not given in full)
2 µM | 2.1 µM | NCCCNCCOC1[C@@H](OCSc2ccnc3cc(C(F)(F)F)ccc23)C(N)C[C@@H](N)[C@H]1O (stereo not given in full)
